Experimental data reported in patent US12240862B2, “Inhibitors of peptidylarginine deiminases” (Gilead Sciences, Inc., priority 2020, dated 2025).
pIC50: −log10 of the molar value.

molecular target: T1, human PAD4 (Homo sapiens, UniProt Q9UM07); assay: In vitro PAD4 BAEE biochemical assay; conditions: human PAD4, BAEE substrate; 5 nM PAD4, 2 mM calcium chloride, 3 mM BAEE; geometric mean of multiple experiments
T1 construct: human PAD4 (NM_012387), A2P663, was PCR amplified; His-SUMO (N, cleaved yes); made in house; host or cells: E. coli BL21(DE3)
T1 sequence (Q9UM07 2-663): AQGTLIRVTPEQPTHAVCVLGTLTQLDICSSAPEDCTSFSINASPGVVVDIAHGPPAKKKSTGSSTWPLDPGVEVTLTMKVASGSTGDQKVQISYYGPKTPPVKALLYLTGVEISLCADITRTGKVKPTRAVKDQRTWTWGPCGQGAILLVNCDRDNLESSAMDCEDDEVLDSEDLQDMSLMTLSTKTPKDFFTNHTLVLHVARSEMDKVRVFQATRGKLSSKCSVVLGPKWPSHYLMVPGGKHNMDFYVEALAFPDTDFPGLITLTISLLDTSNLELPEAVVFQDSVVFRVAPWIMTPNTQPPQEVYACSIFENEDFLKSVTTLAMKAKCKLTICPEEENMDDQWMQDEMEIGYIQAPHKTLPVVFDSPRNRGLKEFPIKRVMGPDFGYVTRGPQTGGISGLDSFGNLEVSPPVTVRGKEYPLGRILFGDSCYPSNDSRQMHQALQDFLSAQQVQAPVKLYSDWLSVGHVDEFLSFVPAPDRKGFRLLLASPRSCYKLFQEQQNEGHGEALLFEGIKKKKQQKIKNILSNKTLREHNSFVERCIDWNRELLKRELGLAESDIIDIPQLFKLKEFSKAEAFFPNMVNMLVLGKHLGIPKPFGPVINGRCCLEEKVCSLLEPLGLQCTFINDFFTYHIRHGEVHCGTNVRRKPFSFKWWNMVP
How it was run: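 Ammonia release from BAEE deimination monitored by o-phthalaldehyde amine coupling (1 h, 25 °C) after EDTA stop. Final conditions: 5 nM tag-free recombinant human PAD4 (E. coli), 2 mM CaCl2, 3 mM BAEE, pH 7.6 MOPS with DTT; 30 min compound preincubation, then 2 h reaction at 25 °C.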

Structure (SMILES)	pIC50
COc1cc(C(=O)N2C[C@@H]3CC[C@H]2[C@@H](N)C3)cc2nc(-c3cc4ccc(N(C(F)F)S(C)(=O)=O)nc4n3CC3CC3)c(C)n12 [Example 375, ~{N}-[2-[7-[(1~{S},4~{R}, 6~{S})-6-amino-2-azabicyclo[2.2.2]octane-2-carbonyl]-5-methoxy-3-methylimidazo[1,2-a]pyridin-2-yl]-1-(cyclopropylmethyl)pyrrolo [2,3-b]pyridin-6-yl]-~{N}-(difluoromethyl) methanesulfonamide]	5.56
COc1cc(C(=O)N2[C@H]3CC[C@@H]2[C@H](N)C3)cc2nc(-c3cc4ccc([C@@H](C)NC(=O)c5cc6n(c5)CCOC6)nc4n3CC3CC3)c(C)n12 [Example 62, ~{N}-[(1~{R})-1-[2-[7-[(1~{R},2~{R}, 4~{S})-2-amino-7-azabicyclo[2.2.1]heptane-7-carbonyl]-5-methoxy-3-methylimidazo [1,2-a]pyridin-2-yl]-1-(cyclopropylmethyl)pyrrolo[2,3-b]pyridin-6-yl]ethyl]-3,4-dihydro-1~{H}-pyrrolo [2,1-c][1,4]oxazine-7-carboxamide]	7.32
COc1cc(C(=O)N2[C@H]3CC[C@@H]2[C@H](N)C3)cc2nc(-c3cc4ccc(C(C)C(N)=O)nc4n3CC3CC3)c(C)n12 (stereo partly drawn) [Example 545]	7.09
COc1cc(C(=O)N2CCC[C@@H](N)C2)cc2nc(-c3cc4ccc([C@@H](C)NC(=O)C56CC(F)(C5)C6)nc4n3CC3CC3)c(C)n12 [Example 125, ~{N}-[(1~{R})-1-[2-[7-[(3~{R})-3-aminopiperidine-1-carbonyl]-5-methoxy-3-methylimidazo[1,2-a]pyridin-2-yl]-1-(cyclopropylmethyl)pyrrolo[2,3-b]pyridin-6-yl]ethyl]-3-fluorobicyclo[1.1.1] pentane-1-carboxamide]	7.10
COc1cc(C(=O)N2[C@H]3CC[C@@H]2[C@H](N)C3)cc2nc(-c3cc4ccc([C@@H](C)NC(=O)N5C[C@H]6OCC[C@H]65)nc4n3CC3CC3)c(C)n12 [Example 196, (1~{R},5~{R})-~{N}-[(1~{R})-1-[2-[7-[(1~{R},2~{R},4~{S})-2-amino-7-azabicyclo[2.2.1]heptane-7-carbonyl]-5-methoxy-3-methylimidazo [1,2-a]pyridin-2-yl]-1-(cyclopropylmethyl)pyrrolo [2,3-b]pyridin-6-yl]ethyl]-2-oxa-6-azabicyclo [3.2.0]heptane-6-carboxamide]	7.53
CCOC(=O)N(C)c1ccc2cc(-c3nc4cc(C(=O)N5[C@H]6CC[C@@H]5[C@@H](N)CC6)cc(OC)n4c3C)n(CC3CC3)c2n1 [Example 491, ethyl~{N}-[2-[7-[(1~{R}, 2~{S},5~{R})-2-amino-8-azabicyclo[3.2.1]octane-8-carbonyl]-5-methoxy-3-methylimidazo[1,2-a]pyridin-2-yl]-1-(cyclopropylmethyl)pyrrolo [2,3-b]pyridin-6-yl]-~{N}-methylcarbamate]	4.49
COc1cc(C(=O)N2[C@H]3CC[C@@H]2[C@H](N)C3)cc2nc(-c3cc4ccc(C5CCN(C(C)=O)CC5)nc4n3CC3CC3)c(C)n12 [Example 527, 1-[4-[2-[7-[(1~{R},2~{R}, 4~{S})-2-amino-7-azabicyclo[2.2.1]heptane-7-carbonyl]-5-methoxy-3-methylimidazo[1,2-a]pyridin-2-yl]-1-(cyclopropylmethyl)pyrrolo [2,3-b]pyridin-6-yl]piperidin-1-yl] ethenone]	6.66
COc1cc(C(=O)N2[C@H]3CC[C@@H]2[C@H](N)C3)cc2nc(-c3cc4ccc([C@@H](C)NC(=O)NC5CCOC5)nc4n3CC3CC3)c(C)n12 (stereo partly drawn) [Example 231, 1-[(1~{R})-1-[2-[7-[(1~{R},2~{R},4~{S})-2-amino-7-azabicyclo[2.2.1]heptane-7-carbonyl]-5-methoxy-3-methylimidazo [1,2-a]pyridin-2-yl]-1-(cyclopropylmethyl)pyrrolo [2,3-b]pyridin-6-yl]ethyl]-3-(oxolan-3-yl)urea]	7.19
COc1cc(C(=O)N2[C@H]3CC[C@@H]2[C@H](N)C3)cc2nc(-c3cc4ccc([C@@H](C)NC(=O)CN=S(C)(C)=O)nc4n3CC3CC3)c(C)n12 [Example 96]	7.41
COc1cc(C(=O)N2CCC[C@@H](N)C2)cc2nc(-c3cc4ccc(C(C)n5cc(C#N)cn5)nc4n3CC3CC3)c(C)n12 (stereo partly drawn) [Example 548, 1-[1-[2-[7-[(3~{R})-3-aminopiperidine-1-carbonyl]-5-methoxy-3-methylimidazo[1,2-a]pyridin-2-yl]-1-(cyclopropylmethyl)pyrrolo[2,3-b]pyridin-6-yl]ethyl] pyrazole-4-carbonitrile]	6.27
COc1cc(C(=O)N2C[C@H](N)CCN2C)cc2nc(-c3cc4ccc([C@@H](C)NC(=O)C56CC(F)(C5)C6)nc4n3CC3CC3)c(C)n12 [Example 615, N—((R)-1-(2-(7-((R)-5-amino-2-methylhexahydropyridazine-1-carbonyl)-5-methoxy-3-methylimidazo[1,2-a]pyridin-2-yl)-1-(cyclopropylmethyl)-1H-pyrrolo[2,3-b]pyridin-6-yl)ethyl)-3-fluorobicyclo[1.1.1]pentane-1-carboxamide]	7.16
COc1cc(C(=O)N2[C@H]3CC[C@@H]2[C@H](N)C3)cc2nc(-c3cc4ccc(N(C(F)F)S(C)(=O)=O)nc4n3CC3CC3)c(C3CC3)n12 [Example 385, ~{N}-[2-[7-[(1~{R},2~{R}, 4~{S})-2-amino-7-azabicyclo[2.2.1]heptane-7-carbonyl]-3-cyclopropyl-5-methoxyimidazo[1,2-a]pyridin-2-yl]-1-(cyclopropylmethyl)pyrrolo [2,3-b]pyridin-6-yl]-~{N}-(difluoromethyl) methanesulfonamide]	6.81
COc1cc(C(=O)N2[C@H]3CC[C@@H]2[C@H](N)C3)cc2nc(-c3cc4ccc([C@@H](C)NC(=O)N(C)C(C)c5cccnc5)nc4n3CC3CC3)c(C)n12 (stereo partly drawn) [Example 221, 3-[(1~{R})-1-[2-[7-[(1~{R},2~{R},4~{S})-2-amino-7-azabicyclo[2.2.1]heptane-7-carbonyl]-5-methoxy-3-methylimidazo [1,2-a]pyridin-2-yl]-1-(cyclopropylmethyl)pyrrolo [2,3-b]pyridin-6-yl]ethyl]-1-methyl-1-(1-pyridin-3-ylethyl)urea]	7.21
COc1cc(C(=O)NC[C@@H]2CCCN2)cc2nc(-c3cc4ccc(N(C(F)F)S(C)(=O)=O)nc4n3CC3CC3)c(C)n12 [Example 303, 2-[1-(cyclopropylmethyl)-6-[difluoromethyl (methylsulfonyl)amino]pyrrolo[2,3-b]pyridin-2-yl]-5-methoxy-3-methyl-~{N}-[[(2~{S})-pyrrolidin-2-yl]methyl] imidazo[1,2-a] pyridine-7-carboxamide]	4.63
COc1cc(C(=O)N2CC[C@@H]3CCN[C@@H]3C2)cc2nc(-c3cc4ccc(N(C(F)F)S(C)(=O)=O)nc4n3CC3CC3)c(C)n12 [Example 419]	5.93
COc1cc(C(=O)N2[C@H]3CC[C@@H]2[C@H](N)C3)cc2nc(-c3cc4ccc([C@@H](C)NC(=O)C56CCC(F)(CC5)CC6)nc4n3CC3CC3)c(C)n12 [Example 63, ~{N}-[(1~{R})-1-[2-[7-[(1~{R},2~{R}, 4~{S})-2-amino-7-azabicyclo[2.2.1]heptane-7-carbonyl]-5-methoxy-3-methylimidazo [1,2-a]pyridin-2-yl]-1-(cyclopropylmethyl)pyrrolo[2,3-b]pyridin-6-yl]ethyl]-4-fluorobicyclo[2.2.2] octane-1-carboxamide]	7.07
COc1cc(C(=O)N[C@@H]2CC[C@H](C)NC2)cc2nc(-c3cc4ccc(N(C(F)F)S(C)(=O)=O)nc4n3CC3CC3)c(C)n12 [Example 315, 2-[1-(cyclopropylmethyl)-6-[difluoromethyl (methylsulfonyl)amino]pyrrolo[2,3-b]pyridin-2-yl]-5-methoxy-3-methyl-~{N}-[(3~{R},6~{S})-6-methylpiperidin-3-yl]imidazo[1,2-a] pyridine-7-carboxamide]	6.46
COc1cc(C(=O)N2[C@H]3CC[C@@H]2[C@H](N)C3)cc2nc(-c3cc4ccc([C@@H](C)NC(=O)C5CCOCC5)nc4n3CC3CC3)c(C3CC3)n12 [Example 98]	7.48
COc1cc(C(=O)N2CCC[C@@H](N)C2)cc2nc(-c3cc4ccc(-c5ccnc6c5CC(=O)N6)nc4n3CC3CC3)c(C)n12 [Example 600, 4-[2-[7-[(3~{R})-3-aminopiperidine-1-carbonyl]-5-methoxy-3-methylimidazo[1,2-a]pyridin-2-yl]-1-(cyclopropylmethyl)pyrrolo[2,3-b]pyridin-6-yl]-1,3-dihydropyrrolo[2,3-b] pyridin-2-one]	6.18
COc1cc(C(=O)N2[C@H]3CC[C@@H]2[C@H](N)C3)cc2nc(-c3cc4ccc([C@@H](C)NC(C)=O)nc4n3CC3CC3)c(C3CC3)n12 [Example 178, ~{N}-[(1~{R})-1-[2-[7-[(1~{R},2~{R},4~{S})-2-amino-7-azabicyclo[2.2.1]heptane-7-carbonyl]-3-cyclopropyl-5-methoxyimidazo [1,2-a]pyridin-2-yl]-1-(cyclopropylmethyl)pyrrolo [2,3-b]pyridin-6-yl]ethyl] acetamide]	7.05
COc1cc(C(=O)N2[C@H]3CC[C@@H]2[C@H](N)C3)cc2nc(-c3cc4ccc([C@@H](C)NC(=O)C5CN(C(C)=O)C5)nc4n3CC3CC3)c(C)n12 [Example 149, 1-acetyl-~{N}-[(1~{R})-1-[2-[7-[(1~{R},2~{R},4~{S})-2-amino-7-azabicyclo [2.2.1]heptane-7-carbonyl]-5-methoxy-3-methylimidazo [1,2-a]pyridin-2-yl]-1-(cyclopropylmethyl)pyrrolo [2,3-b]pyridin-6-yl]ethyl] azetidine-3-carboxamide]	7.11
